Values of other authors in patent publication US20030215406A1, “Cosmetic or dermatological preparations containing aminogaunidine, derivatives thereof or structural analogs thereof” (Beiersdorf AG, priority 2000, published 2003).

N=C(N)NN [Aminoguanidine]
solubility in alcohol (solvent: alcohol): soluble
solubility in ether (solvent: ether): insoluble
solubility in water (solvent: water): soluble
